Experimental data reported in patent US20100278849A1, “PROSTATIC ACID PHOSPHATASE ANTIGENS” (priority 2004, published 2010).
Values joined by “and” are separate entries in the source; they are usually repeats but may differ in a detail not shown here. Equal entries are not always repeated. “Also recorded” adds a separate entry of the source.

Legend:
RMAS-HLA-A2 cells = assay: 51Chromium cytotoxicity assay of splenocytes from HLA-A2.1/Kb mice against peptide-pulsed RMAS cells; assay type: cell-based; settings: for % cytoxicity at 50:1 ratio RMAS + irrel.: targets pulsed with irrelevant peptide
IFN-γ [1] = assay: IFN-γ release by splenocyte (CTL) cultures, ELISA; assay type: cell-based, mice
Procedure: After at least 7 and not more than 10 days, immunised animals were killed, and the spleens recovered into transport media. Spleens were gently macerated and flushed by injecting 10 ml “CTL culture media” (RPMI 1640, 1% L-glutamine, 10% FCS (PAA labs), 20 mM Hepes, 50 μM 2-mercaptoethanol, 50 U/ml penicillin, 500 U/ml streptomycin and 0.25 μg/ml fungizone) under pressure through a fine bore hypodermic needle introduced through the spleen capsule, thus facilitating the isolation of splenocytes. The remaining tissue was diced and digested for 1 hour at 37° C. using an enzyme cocktail (IMDM containing […] 2-ME, 100 U/ml penicillin+1000 U/ml streptomycin, 8 mg/ml collagenase and 1% DNAse). The flushed and digested cell populations were washed and pooled, and then seeded into 15 wells of a 24 well-plate at 5×10^6 cells/well in 2 ml of media containing 20 μg peptide. The test peptide was added to 12 wells, while 3 wells received an irrelevant class-I peptide as a control. Splenocyte cultures were incubated for 5 days at 37° C.
(§1) Aliquots of supernatants were removed from CTL cultures on days 1 and 5 and on days 2 and 5 from CD4′ T cell cultures and stored at −20° C. until required. ELISA was used to quantitate concentrations of murine IFN-γ and IL-5 (R&D systems, UK).
Figures represent the ratio of IFN-γ released by splenocytes stimulated in vitro by PAP.135 to IFN-γ released by splenocytes stimulated in vitro by an irrelevant HLA-A2*0201 CTL epitope. The mean results of 10 experiments using splenocytes derived from PAP.135-immunised mice are given, and 1 in which splenocytes derived from non-immunised (naive mice) were used.

LNCaP cells = assay: 51Chromium cytotoxicity assay of splenocytes from PAP.135 immunised mice against LNCaP cells; assay type: cell-based, human; settings: LNCaP express HLA-A2 and PAP
Procedure: (c): Cytotoxicity against LNCaP cells by splenocytes derived from PAP.135 immunised mice. Results are representative of 10 mice and 2 individual experiments.
(§2) LNCaP is a human prostate cancer cell-line known to express HLA-A2 and PAP. Cells were propagated in RPMI 1640 media (GibcoBRL, UK) supplemented with 10% foetal calf serum (BioWhittaker, Belgium), 100 U/ml penicillin with 100 μg/ml streptomycin (GibcoBRL, UK), 5 ng/ml hydrocortisone and 5 ng/ml testosterone (Sigma, USA). […] Cells were grown in suspension in tissue culture flasks containing RPMI 1640 (GibcoBRL, UK) with 10% foetal calf serum (FCS) (BioWhittaker, Belgium) and 1% L-glutamine supplement (GibcoBRL, UK).
Target cells were pulsed overnight with test peptide or an irrelevant HLA-A2 binding epitope and labelled for 1 hour with 1.85 MBq ^51Chromium. For cytotoxicity assays involving tumour cell-lines, cells were treated with 100 U/ml IFN-γ for 24 hours prior to ^51Chromium labelling. Target cells were washed and allowed to stand in CTL media for 1 hour before washing again. […] HLA-A2 dependence was determined by the addition of anti-HLA-A2 antibody (Serotec, UK) to some wells. […] Supernatants were harvested and analysed using a Top Count™ gamma counter (Can berra-Packard, USA). Specific lysis was determined as follows: […]

HLA-A2*0201 = HLA-A2*0201 (Homo sapiens, UniProt P04439, D140Y/D185E/D98H/E176V/E277Q/G131W/G231S/I119V/I121R/I166T/I218V/L300P/L318F/N151K/N90K/P208A/P217A/Q86G/Q94H/R138H/R169H/T345S); assay type: cell-based; settings: peptide at 100, 10 and 1 μM; compared with positive control influenza M1 peptide; three independent experiments
LCL cells = assay: 51Chromium cytotoxicity assay of splenocytes from PAP.135 immunised mice against LCL cells; assay type: cell-based, human; settings: LCL express HLA-A2 but not PAP
Procedure: as §2
Target cells were pulsed overnight with test peptide or an irrelevant HLA-A2 binding epitope and labelled for 1 hour with 1.85 MBq ^51Chromium. For cytotoxicity assays involving tumour cell-lines, cells were treated with 100 U/ml IFN-γ for 24 hours prior to ^51Chromium labelling. Target cells were washed and allowed to stand in CTL media for 1 hour before washing again. Target cells and effector CTLs were co-incubated at various ratios in 96-well plates in a final volume of 200 μl for 4 hours at 37° C. HLA-A2 dependence was determined by the addition of anti-HLA-A2 antibody (Serotec, UK) to some wells. Maximum and spontaneous release of ^51Chromium was ascertained by incubating target cells with 2% SDS or media alone, respectively. Supernatants were harvested and analysed using a Top Count™ gamma counter (Can berra-Packard, USA). Specific lysis was determined as follows: […]

IFN-γ [2] = assay: Cytokine production by splenocytes of immunised C57BL/6-DR4 mice, ELISA; assay type: cell-based; settings: relevant versus irrelevant peptide
Procedure: (§3) After 6 days, the spleens from immunised animals were collected and the cells flushed out using T cell media (RPMI+10% FCS+20 mM HEPES buffer+50 μM 2-mercaptoethanol+50 U/ml penicillin/streptomycin+0.25 μg/ml fungizone). The remaining splenic tissue was digested using an enzyme cocktail (0.1 U/ml DNAase (Sigma)+1.6 mg/ml collagenase (Sigma)) for 1 hour at 37° C. The cell suspension obtained was pooled with the flushed cells, washed once, and the splenocytes were plated in 24 well plates with 10 μg/ml of peptide at a density of 2.5×10^6/ml for FVB/N-DR1 or 3.5×10^6/ml for C57BL/6-DR4. Cells were also cultured with an irrelevant peptide as a control. To measure cytokine production, culture supernatants were collected on day 2 and 5 of the culture for the measurement of cytokine by ELISA.
as §1
We further investigated HLA-DR class-II restricted responses to PAP peptides that were predicted to bind to HLA-DR1 and HLA-DR4 according to the evidence-based computer assisted algorithm […]. The peptides displaying high binding scores for both HLA-DR alleles were selected and further studied (Table 1). C57BL/6-DR4 mice were immunised with these predicted HLA-DR-restricted PAP and the proliferative and IFN-γ response to peptide stimulation in vitro was monitored by proliferation assays and cytokine measurements. PAP. 64 and PAP.

IFN-γ [3] = assay: Cytokine production by splenocytes of immunised FVB/N-DR1 mice, ELISA; assay type: cell-based
Procedure: as §3, §1

HLA-DRβ1*0101 = assay: Proliferation of splenocytes from immunised HLA-DR1 mice with peptide-pulsed BM-DC (tritiated thymidine); assay type: cell-based; settings: responding/total mice, after re-stimulation in vitro with relevant peptide
Procedure: (§4) HLA-A2.1/K^b mice were immunised with an emulsion consisting of 100 μg of the putative class-I peptide epitope and 100 μg of non-specific class-II peptide derived from hepatitis B virus in 50% incomplete Freund's adjuvant (IFA). HLA-DR4- and HLA-DR1-transgenic mice were immunised twice at one week interval with 100 μg of class-II peptide emulsified in 50% incomplete Freund's adjuvant (IFA) and 50% PBS. All vaccine were delivered as a 100 μl intradermal bolus inoculum at the base of the tail.
(§5) 0DC were generated using a method adapted from Inaba et al (Inaba et al. 1992). Briefly, femurs and tibias were harvested aseptically from non-immunised DR1 or DR4 transgenic mice and placed in sterile PBS supplemented with 50 IU/ml penicillin, 50 μg/ml streptomycin, and 0.25 μg/ml fungizone. The marrow was flushed out of the bone using BM-DC media (RPMI 1640 medium supplemented with 2 mM glutamine, 5% FCS, 10 mM Hepes, 501M 2-ME, 50 μg/ml penicillin, 50 μg/ml streptomycin, 0.25 μg/ml fungisone and 10% of supernatant collected from X-63 cells). The cells were washed once in BM-DC media and plated in 24-well plates at 10^6/well in 1 ml DC media and incubated at 37° C. in a 5% CO2 humidified atmosphere. On days 2 and 4, the non-adherent cells (T cells, B cells, granulocytes) were removed, and the remaining cells were cultured in fresh DC medium. After 7-9 days, clusters of loosely adherent DC were dislodged and collected by gently pipetting, before being washed and seeded in 24-well plates at 0.5×10^6 cells/well in 1 ml DC media. Peptides were added at 1 μg/well and the plates were incubated at 37° C. 1 μg/ml of LPS was added after 5 hours, and the plates were incubated overnight at 37° C. in a 5% CO2 in air-humidified atmosphere.
as §3
Splenocytes from immunised animals cultured for 6 days in the presence of 10 μg of the test peptide were harvested, washed and counted. CD8+ T cells were depleted from the cell suspension using anti-CD8+ antibody coupled with magnetic beads (Dynal, UK) as per the manufacturers instructions. Cells were then washed in PBS and resuspended at 5×10^5/ml in T cell medium. 100 μl of T cells was then added to all wells. Anti-DR antibody (L243) or isotype control were added to some wells to confirm the MHC specificity of the T-cell response. LPS-treated dendritic cells were harvested, washed and incubated in 1 ml of DC medium with the addition of 10 íg of peptide at 37° C. for 5 hours. After washing, 10^3 peptide-pulsed DC were added to the relevant wells of lymphocyte cultures in 50 íl media. […] Plates were harvested onto 96 Uni/Filter (Packard), the scintillation liquid (Microscint 0, Packard) was added and the plates were counted on a Top-Count counter (Packard). […]

IFN-γ [4] = assay: IFN-γ ELISPOT of rested CD8-depleted T cells with peptide-pulsed BM-DC; assay type: cell-based, mice; settings: BM-DC pulsed with PAP.161 versus Flu peptide
HLA-DRβ1*0401 = assay: Proliferation of splenocytes from immunised HLA-DR4 mice with peptide-pulsed BM-DC (tritiated thymidine); assay type: cell-based
Procedure: as §4, §5, §3
[…] CD8+ T cells were depleted from the cell suspension using anti-CD8+ antibody coupled with magnetic beads (Dynal, UK) as per the manufacturers instructions. Cells were then washed in PBS and resuspended at 5×10^5/ml in T cell medium. 100 μl of T cells was then added to all wells. Anti-DR antibody (L243) or isotype control were added to some wells to confirm the MHC specificity of the T-cell response. LPS-treated dendritic cells were harvested, washed and incubated in 1 ml of DC medium with the addition of 10 íg of peptide at 37° C. for 5 hours. After washing, 10^3 peptide-pulsed DC were added to the relevant wells of lymphocyte cultures in 50 íl media. These plates were then incubated for 3 days at 37° C. in a 5% CO2 in air-humidified atmosphere. Tritriated thymidine was then added to the culture and incubated again for 18 hours. Plates were harvested onto 96 Uni/Filter (Packard), the scintillation liquid (Microscint 0, Packard) was added and the plates were counted on a Top-Count counter (Packard). Results are expressed in counts per minute (cpm) and as a means of the triplicate wells. Statistical analysis was performed using unpaired Student's t test. […]

Sequence	inhibition of peptide specific lysis by HLA-A2 blocking antibody (RMAS-HLA-A2 cells; PAP.135-pulsed targets, splenocytes from PAP.135 immunised mice, two separate experiments)	lysis of PAP.135 pulsed RMAS-HLA-A2 cells (RMAS-HLA-A2 cells; splenocytes from PAP.135 immunised mice)	% cytoxicity at 50:1 ratio RMAS + irrel. (RMAS-HLA-A2 cells; splenocytes from PAP.135-immunised mice, 50:1)	% cytoxicity at 50:1 ratio RMAS + PAP.135 (RMAS-HLA-A2 cells; splenocytes from naïve (non-immunised) mouse stimulated with PAP.135 in vitro, 50:1) [%]	% cytoxicity at 50:1 ratio RMAS + irrel. (RMAS-HLA-A2 cells; splenocytes from naïve (non-immunised) mouse, 50:1) [%]	lysis of PAP.135 pulsed RMAS-HLA-A2 cells (RMAS-HLA-A2 cells; splenocytes from non-immunised (naïve) mice stimulated by PAP.135 in vitro)	IFN-γ release by splenocytes stimulated in vitro (IFN-γ [1]; PAP.135-immunised mice, versus irrelevant epitope, day 5)	IFN-γ release by splenocytes stimulated in vitro (IFN-γ [1]; non-immunised (naïve) mice)	IFN-γ release (PAP.135:irrel.) (IFN-γ [1]; ratio, splenocytes from naïve (non-immunised) mouse)	lysis of LNCaP cells (LNCaP cells)	binding to HLA-A2 (T2 cells) (HLA-A2*0201)	lysis of LCL cells (LCL cells)	IFN-γ production by splenocytes (IFN-γ [2])	IFN-γ or IL-50 (cytokine) production of splenocytes (IFN-γ [3])	number of HLA-DR1 mice whose splenocytes demonstrated specific proliferation (HLA-DRβ1*0101)	IFN-γ production, ELISPOT (IFN-γ [4])	proliferative response to peptide-pulsed BM-DC (HLA-DRβ1*0401; 7 days in vitro stimulation, CD8+ T cells removed, rested 7 days)	effect of anti-HLA-DR antibody (L243) on proliferation (HLA-DRβ1*0401; not blocked by isotype control)	proliferation of splenocytes from immunised HLA-DR4 mice (HLA-DRβ1*0401; re-stimulated in vitro with peptide for 5 days)	number of HLA-DR4 mice whose splenocytes demonstrated specific proliferation (HLA-DRβ1*0401; responding/total mice, after re-stimulation in vitro with relevant peptide)
ILLWQPIPV (listed as Homo sapiens) [PAP.135]	approximately 80%	lysed RMAS-HLA-A2 cells, pulsed with PAP.135 in a dose dependent manner; also recorded: highly cytotoxic	2% and 7% and 9% and 4% and 1% and 5% and 3%	13	11	failed to demonstrate cytotoxicity; also recorded: unable to lyse target cells	significantly more IFN-γ; also recorded: significantly upregulated	independent of the peptide used for in vitro stimulation	1.1	dose-dependent lysis; also recorded: highly cytotoxic	strong binding; also recorded: strongest HLA-A2 binding; also recorded: higher affinity to T2 cells	not susceptible to lysis								
CPRFQELESETLKSE (listed as Homo sapiens) [PAP.161]													produced in large quantities	no production of cytokines could be detected in high enough levels	3 out of 6 and 3/6	high amount of IFN-γ in peptide specific manner; also recorded: producing IFN-γ	Significant proliferation; also recorded: consistently confirmed; also recorded: responded specifically	blocked in the presence of HLA-DR antibody; also recorded: blocked by the addition of L243 antibody; also recorded: inhibited by the addition of L243 antibody; also recorded: blocked by the presence of L243 antibody	Specific proliferation	6 out of 8 and 4/6
